Experimental data: patent publication US12171734B2, “Pathogenic bacteria” (Sporegen Limited, priority 2018, dated 2024)
≈ marks a conversion by molar mass, not a printed value. Entries after “also recorded” stand apart in the source; their conditions may differ. Numbered stars: 1 amine (or outer) side, 2 acyl side, 3 side chain; on linkers, the order of the positions; unused ones are H or OH. Bridge positions count the residues as written; N and C are the ends. Square brackets hold non-standard residues; d marks the D form. Peptide text beside a SMILES is read from it. X1 = CC(C)CCCCCCCCC[C@H](CC(=O)[*:1])O[*:2]; X2 = CCC(C)CCCCCCCCCCC(CC(=O)[*:2])N[*:1]

Columns and labels:
CD630 [1] = assay: Microdilution assay of inhibitory activity against C. difficile strain 630; conditions: for activity to CD630 of commercial lipopeptides: commercial (SIGMA) samples, alone or combined
M. tuberculosis H37Rv = assay: MIC by resazurin microtitre assay (REMA); assay type: cell-based; conditions: Mycobacterium tuberculosis, 240 h, read-out: MIC, M. tuberculosis H37Rv
[2] = Solubility in water / appearance of solution; assay type: physicochemical
Text: C15 iturin A is an example of a lipopeptide able to form micelles and is water-soluble. The inventors suspect that C15 iturin A may enable other lipopeptides to be solubilised in water and potentially form mixed micelles enabling them to target the bacterial cell. To test this, the inventors mixed water solubilised C15 iturin A with a commercial surfactin (Sigma S3523; derived from B. subtilis and a mixture of C13-C15 surfactins). […] The presence of C15 iturin A enables the solubilisation of […] in water and probably all or many of the other lipopeptides present in or on the cell wall of SG277 and other Bacillus species. The important requirements for activity are the concentration of lipopeptides that are produced (since micelles can only be formed at levels above a critical threshold). The micelles formed are most likely to be mixed micelles (i.e., carrying different lipopeptide species but all carrying C15 iturin A)(at least for B. amyloliquefaciens).

[3] = lipopeptides of B. subtilis; cited from earlier work
CD630 [4] = assay: Bacteriolytic vs bacteriocidal vs bacteriostatic activity on log-phase CD630 cultures (OD600, CFU); assay type: cell-based, C. difficile; conditions: activity normalised; added at log phase
Description: Fractions 1-3 were analysed for their ability to inhibit growth of cultures of CD630 by addition of test material at the log phase of cell growth (OD600˜0.3). Test materials were diluted in dH2O to normalise so that each sample to be tested carried the same activity/volume. […] of diluted test material was added to 1 ml of CD630 culture and 0.2 ml removed hourly for OD600 readings.
Optical density (OD600) was measured before and after addition of test material. A decline in OD600 indicates bacteriolytic activity while stalling of the increase in OD600 indicates either bacteriostatic or bacteriocidal growth. On the other hand a decline in CFU/ml indicates both bacteriolytic and/or bacteriocidal activity. (FIGS. 22A and 22B and Table 13).

## Iturin A
CD630 [1]
  activity to CD630 of commercial lipopeptides: unable to demonstrate any activity
CD630 [1]; listed as iturin
  activity to CD630 of commercial lipopeptides: none showed activity

## NNC(=O)c1ccncc1 [Isoniazid]
M. tuberculosis H37Rv
  MIC: 0.25 µg/mL (≈ 1.82 µM)

## CC(C)CCCCCCCCC[C@@H]1CC(=O)N[C@@H](CCC(=O)O)C(=O)N[C@@H](CC(C)C)C(=O)N[C@H](CC(C)C)C(=O)N[C@@H](C(C)C)C(=O)N[C@@H](CC(=O)O)C(=O)N[C@H](CC(C)C)C(=O)N[C@@H](CC(C)C)C(=O)O1 [surfactin, Surfactin] (EL[dL]VD[dL]L; linker N-C via X1)
[2]
  solubility in water: not soluble in water
[3]
  micelle size: 5-105 nm
CD630 [1]
  activity against C. difficile (in words): no activity
  activity to CD630 of commercial lipopeptides: unable to demonstrate any activity; also recorded: none showed activity

## CC(N)C(=O)NC(C[C@@H]1C=C(Cl)C(=O)CC1)C(=O)O (some centres unmarked) [Chlorotetaine]
CD630 [4]
  Bacteriocidal (cessation of cell growth, CD630 cfu/ml): bacteriocidal

## CCC(C)CCCCCCCCCCC1CC(=O)N[C@@H](CC(N)=O)C(=O)N[C@@H](CCC(N)=O)C(=O)N2CCC[C@H]2C(=O)N[C@H](Cc2ccc(O)cc2)C(=O)N[C@H](CC(N)=O)C(=O)N[C@H](CC(N)=O)C(=O)N[C@H](CO)C(=O)N[C@@H](CC(N)=O)C(=O)N1 (some centres unmarked) [mycosubtilin, Mycosubtilin] (cyclo(NQP[dY][dN][dN][dS]N[X2]))
[3]
  micelle size: 8-18 nm

## CO[C@H]1/C=C/O[C@@]2(C)Oc3c(C)c(O)c4c(O)c(c(/C=N/N5CCN(C)CC5)c(O)c4c3C2=O)NC(=O)/C(C)=C\C=C\[C@H](C)[C@H](O)[C@@H](C)[C@@H](O)[C@@H](C)[C@H](OC(C)=O)[C@@H]1C [Rifampicin]
M. tuberculosis H37Rv
  MIC: 0.5 µg/mL (≈ 0.608 µM)

## fengycin
CD630 [1]
  activity to CD630 of commercial lipopeptides: none showed activity
